From patent publication US20190246647A1, “COMPOSITIONS AND RELATED METHODS FOR MODULATING ENDOSYMBIONTS” (Flagship Pioneering Innovations V, Inc., priority 2017, published 2019)
“Also recorded” adds a separate entry of the source. {Cy3} = Cy3 dye attached by azide-DBCO click chemistry

What was measured:
Myzus persicae [1] = assay: Cy3-PNA in artificial diet: aphid survival; assay type: in vivo; details: 0.5 to 10 mg/L in artificial diet; paper example
Experimental: Cy3-PNA solutions are formulated with 0, 0.5, 1, 5 or 10 mg/L of Cy3-PNA from Example 11 in 10 mL of 0.5% sucrose and essential amino acids.
(§1) To prepare for the treatment, aphids are grown in a lab environment and medium. In a climate-controlled room (16 h light photoperiod; 60±5% RH; 20±2° C.), plants are grown in a mixture of vermiculite and perlite and are infested with aphids. To limit maternal effects or health differences between plants, 5-10 adults from different plants are distributed among 10 two-week-old plants, and allowed to multiply to high density for 5-7 days. For experiments, second and third instar aphids are collected from healthy plants and divided into treatments so that each treatment receives approximately the same number of individuals from each of the collection plants.
Wells of a 96-well plate are filled with 200 μl of artificial aphid diet (Febvay et al., Canadian Journal of Zoology 66(11):2449-2453, 1988) and the plate is covered with parafilm to make a feeding sachet. Artificial diet is either mixed with the solution of sterile water with 0.5% sucrose and essential amino acids only as a negative control, or mixed with Cy3-PNA solutions. Cy3-PNA solutions are mixed with artificial diet to obtain final concentrations between 0.5 to 10 mg/L. […]

[2] = tested on: Aphids (LSR-1 strain, Acyrthosiphon pisum); assay: BCR-4 PNA leaf perfusion: aphid survival and development; assay type: in vivo; details: for effect on aphid development / effect on aphid mortality: leaf perfusion, vs water
Experimental: Aphids (LSR-1 strain, Acyrthosiphon pisum) were grown on fava bean plants (Vroma vicia faba from Johnny's Selected Seeds) in a climate-controlled incubator (16 h light/8 h dark photoperiod; 60±5% RH; 25±2° C.). Prior to being used for aphid rearing, fava bean plants were grown in potting soil at 24° C. with 16 h of light and 8 h of darkness. To limit maternal effects or health differences between plants, 5-10 adults from different plants were distributed among 10 two-week-old plants and allowed to multiply to high density for 5-7 days. For experiments, first and second instar aphids were collected from healthy plants and divided into two different treatment groups: 1) those allowed to feed on leaves perfused with water, and, 2) those allowed to feed on leaves perfused with a BCR-4 PNA solution in water.
For each leaf perfusion, approximately 1 ml of water (negative control) or a 1 uM BCR-4 PNA solution was injected into a fava bean leaf. The stem of the leaf was then placed in a 1.5 ml Eppendorf that was sealed with parafilm. The leaf stem was then placed into a deep petri dish (Fisher Scientific, Cat# FB0875711) and aphids were applied to the leaves of the plant and allowed to feed. Old leaves were replaced with new, freshly injected leaves every 2-3 days throughout the experiment. For each treatment, 60 aphids were placed onto each leaf. Aphids were monitored daily for survival and dead aphids were removed when they were discovered. In addition, the developmental stage (1st, 2nd, 3rd, 4th, and 5th instar) was determined daily throughout the experiment.

BCR-4 [3] = assay: BCR-4 PNA leaf perfusion: BCR-4 expression by RT-qPCR; assay type: in vivo, Acyrthosiphon pisum; details: for effect on BCR-4 expression: day 7, vs water
Experimental: After 7 days of treatment, RNA was extracted from the remaining aphids in each treatment group. Briefly, the aphid body surface was sterilized by dipping the aphid into a 6% bleach solution for approximately 5 seconds. Aphids were then rinsed in sterile water and total RNA was extracted from each individual aphid using the RNA extraction kit (Qiagen miRNeasy kit) according to manufacturer's instructions. RNA concentrations were measured using a nanodrop nucleic acid quantification. BCR-4 relative expression was measured by RT-qPCR. The primers used were ApBCR-4F ([…]; SEQ ID NO: 107) and ApBCR-4R ([…]; SEQ ID NO: 108). The internal reference gene primers were for Actin (housekeeping gene). The forward sequence was […]; SEQ ID NO: 109 and the reverse sequence was […]; SEQ ID NO: 110. RT-qPCR was performed using a qPCR amplification ramp of 1.6 degrees C./s and the following conditions: 1) 48° C. for 30 min, 2) 95° C. for 10 minutes, 3) 95° C. for 15 seconds, 4) 60° C. for 1 minute, 5) repeat steps 3-4 40×, 6) 95° C. for 15 seconds, 7) 60° C. for 1 minute, 8) ramp change to 0.15 degrees C./s, 9) 95° C. for 1 second. RT-qPCR data was analyzed using analytic (Thermo Fisher Scientific, QuantStudio Design and Analysis) software.
At 7 post-treatment, RNA was extracted from live aphids and RT-pPCR was done as described above (see Microinjection Delivery Experimental Design) to quantify expression of BCR-4.

BCR-4 [4] = assay: BCR-4 PNA microinjection: BCR-4 expression by RT-qPCR; assay type: in vivo, Acyrthosiphon pisum; details: after 7 days
Experimental: (§2) Microinjection was performed using NanoJet III Auto-Nanoliter Injector with an in-house pulled borosilicate needle (Drummond Scientific; Cat#3-000-203-G/XL). Aphids were transferred using a paint brush to a tubing system connected to vacuum which held them in place during the injection. The injection site was at the ventral thorax of the aphid. The injection solutions were water (negative control) or 321 ng/μl of BCR-4 PNA in water. The injection volume was 20 nl for adult (4th and 5th instar) aphids at a rate of 2 nl/sec. Each treatment group had approximately the same number of individuals injected from each of the collection plants. After injection, aphids were released into a petri dish onto fava bean leaves that had stems in an Eppendorf tube filled with 1 ml water. Survival and fecundity were monitored over the course of the experiment.
Aphids LSR-1 (which harbor only Buchnera), A. pisum were grown on fava bean plants (Vroma vicia faba from Johnny's Selected Seeds) in a climate-controlled incubator (16 h light/8 h dark photoperiod; 60±5% RH; 25±2° C.). […]
After 7 days of treatment, RNA was extracted from the remaining aphids in each treatment group. […] RNA concentrations were measured using a nanodrop nucleic acid quantification. BCR-4 relative expression was measured by RT-qPCR. […] RT-qPCR data was analyzed using analytic (Thermo Fisher Scientific, QuantStudio Design and Analysis) software.

Aphids LSR-1, A. pisum = assay: BCR-4 PNA microinjection: aphid survival and fecundity; assay type: in vivo, Acyrthosiphon pisum
Experimental: as §2
Aphids LSR-1 (which harbor only Buchnera), A. pisum were grown on fava bean plants (Vroma vicia faba from Johnny's Selected Seeds) in a climate-controlled incubator (16 h light/8 h dark photoperiod; 60±5% RH; 25±2° C.). Prior to being used for aphid rearing, fava bean plants were grown in potting soil at 24° C. with 16 h of light and 8 h of darkness. To limit maternal effects or health differences between plants, 5-10 adults from different plants were distributed among 10 two-week-old plants, and allowed to multiply to high density for 5-7 days. For experiments, fourth and fifth instar aphids were collected from healthy plants and divided into two treatment groups: 1) water (negative control) or 2) BCR-4 PNA in water.

Buchnera = assay: BCR-4 PNA leaf perfusion: Buchnera/aphid copies by qPCR; assay type: in vivo; details: for effect on Buchnera titers: vs water
Experimental: After 5 and 6 days of treatment, DNA was extracted from dead aphids from each treatment group. Briefly, the aphid body surface was sterilized by dipping the aphid into a 6% bleach solution for approximately 5 seconds. Aphids were then rinsed in sterile water and DNA was extracted from each individual aphid using a DNA extraction kit (Qiagen, DNeasy kit) according to manufacturer's instructions. DNA concentration was measured using a nanodrop nucleic acid quantification, and Buchnera and aphid DNA copy numbers were measured by qPCR. The primers used for Buchnera were Buch_groES_18F ([…]; SEQ ID NO: 101) and Buch_groES_98R ([…]; SEQ ID NO: 102) (Chong and Moran, 2016 PNAS). The primers used for aphid were ApEF1a 107F ([…]; SEQ ID NO: 103) and ApEF1a 246R ([…]; SEQ ID NO: 104) (Chong and Moran, 2016 PNAS). qPCR was performed using a qPCR amplification ramp of 1.6 degrees C./s and the following conditions: 1) 95° C. for 10 minutes, 2) 95° C. for 15 seconds, 3) 55° C. for 30 seconds, 4) repeat steps 2-3 40×, 5) 95° C. for 15 seconds, 6) 55° C. for 1 minute, 7) ramp change to 0.15 degrees C./s, 8) 95° C. for 1 second. qPCR data was analyzed using analytic (Thermo Fisher Scientific, QuantStudio Design and Analysis) software.

[5] = tested on: its target bacterial strains; details: cited from earlier work
Myzus persicae [6] = assay: Bcr1 dsRNA in artificial diet: aphid survival; assay type: in vivo; details: 0.5 to 5 μg/ml in artificial diet; paper example
Experimental: dsRNA solutions are formulated with 0 (negative control), 0.5, 1, or 5 μg/mL of Bcr1 dsRNA from Example 7 in 10 mL of TE buffer with 0.5% sucrose and essential amino acids.
as §1, with “(16 hr” for “(16 h”
(§3) Wells of a 96-well plate are filled with 200 μl of artificial aphid diet (Febvay et al., Canadian Journal of Zoology 66(11):2449-2453, 1988) and the plate is covered with parafilm to make a feeding sachet. […]

Rhopalosiphum maidis = assay: Bcr1 dsRNA in artificial diet: aphid survival; assay type: in vivo; details: 0.5 to 5 μg/ml in artificial diet; paper example
Experimental: dsRNA solutions are formulated with 0 (negative control), 0.5, 1, or 5 μg/ml of Bcr1 dsRNA from Example 2 in 10 mL of TE buffer with 0.5% sucrose and essential amino acids.
as §1, with “C.), fava bean” for “C.),”
as §3

[7] = vs water, listed as PNA to BCR-4

Cy3-gaatgcagctgc (antisense GAATGCAGCTGC; all peptide nucleic acid (PNA), 5' {Cy3}) [Bcr1 specific Cy3-PNA, antisense PNA against Bcr1 joined to Cy3 dye through click chemistry]
survival rate of aphids vs control (Myzus persicae [1]): decreased

YGRKKRRQRRR-CGTACAATAATCTCATGG (PNA against BCR-4; UniProt P04608 47-57, looked up, fragment) [BCR-4 PNA, peptide nucleic acid (PNA) to BCR-4 fused to a cell penetrating peptide (Tat)]
aphids in the 3rd instar stage ([2]; leaf perfusion 1 uM, day 2 post-treatment, first and second instar aphids): 8%
aphids alive ([2]; leaf perfusion 1 uM, day 7): 30%
effect on aphid development [2]: delayed aphid development
effect on aphid mortality [2]: increased aphid death
effect on aphid development ([2]; listed as PNA to BCR-4): slowed aphid development
effect on aphid mortality ([2]; listed as PNA to BCR-4): increased aphid mortality
effect on BCR-4 expression (BCR-4 [3]): reduction of BCR-4 expression
effect on BCR-4 expression (BCR-4 [3]; listed as PNA to BCR-4): knocked down BCR-4 expression
median transcript levels of BCR-4, fold lower than water (BCR-4 [3]; living aphids after 7 days): approximately 3 fold
expression of BCR-4, water-injected fold higher than BCR-4 PNA-injected (BCR-4 [4]; microinjection 20 nl of 321 ng/μl, 4th and 5th instar): approximately 2 fold
effect on BCR-4 expression (BCR-4 [4]; microinjection, vs water): knockdown of BCR-4; also recorded: reduced BCR-4 expression
offspring produced per adult (Aphids LSR-1, A. pisum; at 3 and 7 days post-treatment): 4 offspring/adult
effect on aphid fecundity (Aphids LSR-1, A. pisum; vs water): slight decrease in aphid fecundity
effect on aphid fecundity (Aphids LSR-1, A. pisum; [7]): decreased fecundity
effect on aphid survival (Aphids LSR-1, A. pisum; [7]): slight decrease in survival; also recorded: decrease in insect survival
mean ratio Buchnera/aphid copies (Buchnera; dead aphids collected 5 and 6 days post-treatment): approximately 57
effect on Buchnera titers (Buchnera): increased Buchnera titers
effect on Buchnera titers (Buchnera; listed as PNA to BCR-4): misbalance in Buchnera titers

nisin
concentration showing antimicrobial activity [5]: single-digit nanomolar concentration

B1: Bcr1 dsRNA: dsRNA hairpin targeting Bcr1 gene (ACYPI32128), SEQ ID NO: 93 (nucleic acid, listed as Acyrthosiphon pisum)
chain: AUGAAACUGCUGCAUGGCUUUCUGAUUAUUAUGCUGACCAUGCAUCUGAGCAUUCAGUAUGCGUAUGGCGGCCCGUUUCUGACCAAAUAUCUGUGCGAUCGCGUGUGCCAUAAACUGUGCGGCGAUGAAUUUGUGUGCAGCUGCAUUCAGUAUAAAAGCCUGAAAGGCCUGUGGUUUCCGCAUUGCCCGACCGGCAAAGCGAGCGUGGUGCUGCAUAACUUUCUGACCAGCCCGUUUUUUUUUUCGGGCUGGUCAGAAAGUUAUGCAGCACCACGCUCGCUUUGCCGGUCGGGCAAUGCGGAAACCACAGGCCUUUCAGGCUUUUAUACUGAAUGCAGCUGCACACAAAUUCAUCGCCGCACAGUUUAUGGCACACGCGAUCGCACAGAUAUUUGGUCAGAAACGGGCCGCCAUACGCAUACUGAAUGCUCAGAUGCAUGGUCAGCAUAAUAAUCAGAAAGCCAUGCAGCAGUUUCAU
survival rate of aphids vs control (Myzus persicae [6]): decreased
survival rate of aphids vs control (Rhopalosiphum maidis): decreased
